Source: US20100240065A1, “Prolyl Hydroxylase Compositions and Methods of Use Thereof” (Boehringer Ingelheim International GmbH, priority 2009, published 2010)
Where two headings read alike, the source gives them in different places.

How the values were obtained:
[1] = test system: recombinant rhesus HPH protein; test: HPH enzyme activity assay, effect of cofactors and metal ions (isoform not given); assay type: biochemical, rhesus (Macaca mulatta)
rhesus HPH1 = rhesus HPH1 (Macaca mulatta, UniProt I2CX88); test: biochemical
Description: (§1) The VBC protein complex was generated by co-expression of Glutathione S-Transferase-VHL (von Hippel Lindau), elongin B and elongin C in Escherichia coli followed by purification of the complex using glutathione affinity resin and size-exclusion chromatography. The HPH enzyme assay is conducted in the well of a 96- or 384-well plate. […] The time-resolved fluorescent signal (excitation at 330 nm; emission at 620 and 665 nm) is read on a plate reader after 1 h of incubation. The ratio of signal at 665 nm to 620 nm is used to calculate the amount of peptide interaction with GST-VBC as a measure of protein hydroxylation.
(§2) The activity of the HPH proteins was measured using an assay dependent upon VBC-recognition of a hydroxylated peptide. The VBC protein complex was generated by co-expression of Glutathione S-Transferase-VHL (von Hippel Lindau), elongin B and elongin C in Escherichia coli followed by purification of the complex using glutathione affinity resin and size-exclusion chromatography. The HPH enzyme assay is conducted in the well of a 96- or 384-well plate. […] The ratio of signal at 665 nm to 620 nm is used to calculate the amount of peptide interaction with GST-VBC as a measure of protein hydroxylation.

rhesus HPH3 = molecular target: T1, rhesus HPH3 (Macaca mulatta, UniProt H9FPE4); test: HPH enzyme TR-FRET assay (VBC-recognition of hydroxylated HIF peptide), HPH3; assay type: biochemical; conditions: inhibitory activity against rhesus HPH3
T1 construct: fused on or other part: C-terminal GST tag used for purification and removed with thrombin before the assay

rhesus HPH2 = rhesus HPH2 (Macaca mulatta, UniProt I2CX88); conditions: read-out: IC50 HPH2; inhibitory activity against rhesus HPH2
Description: as §1, §2

rhesus HPH1, sequence (I2CX88 1-426): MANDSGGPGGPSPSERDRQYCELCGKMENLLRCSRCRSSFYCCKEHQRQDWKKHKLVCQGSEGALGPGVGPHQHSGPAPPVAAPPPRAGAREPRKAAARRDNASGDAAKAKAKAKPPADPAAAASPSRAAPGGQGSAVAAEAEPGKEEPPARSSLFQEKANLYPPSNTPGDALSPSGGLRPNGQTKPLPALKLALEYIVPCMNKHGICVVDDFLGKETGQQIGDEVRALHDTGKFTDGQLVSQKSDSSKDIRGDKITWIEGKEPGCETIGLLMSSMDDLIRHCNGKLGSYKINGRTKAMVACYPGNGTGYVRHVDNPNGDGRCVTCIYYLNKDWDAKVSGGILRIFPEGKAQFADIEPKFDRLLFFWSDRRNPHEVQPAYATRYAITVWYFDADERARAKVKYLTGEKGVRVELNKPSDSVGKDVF
rhesus HPH2, sequence (I2CX88 1-426): as above

SMILES: [Cl-].[Cl-].[Co+2] [CoCl2]
- effect of addition on enzyme activity [1]: inhibited enzyme activity

SMILES: NNc1nncc2ccccc12 [Hydralazine]
- IC50 (rhesus HPH1): 400 µM
- IC50 (rhesus HPH3): 54 µM

SMILES: O=C(O)CNC(=O)C(=O)O [N-oxalylglycine]
- IC50 (rhesus HPH3): 0.66 µM

SMILES: O=C(O)CCC(=O)O [Succinate]
- IC50 (rhesus HPH1; read-out: IC50 HPH1, inhibitory activity against rhesus HPH1): 200 µM
- IC50 (rhesus HPH2): 380 µM
- IC50 (rhesus HPH3): 80 µM

SMILES: [Fe+2] [ferrous iron]
- effect of addition on enzyme activity ([1]; recombinant rhesus HPH, isoform not stated): increased the activity of the enzyme
